Values quoted from earlier work in patent EP4732833A1, “ROPIVACAINE MICROSPHERE AND PREPARATION METHOD THEREFOR” (Bostal Drug Delivery Co., Ltd., priority 2023, dated 2025).

Details: background statement

For CCCN1CCCC[C@H]1C(=O)Nc1c(C)cccc1C [Ropivacaine, (S)-N-(2,6-dimethylphenyl)-1-propylpiperidine-2-carboxamide], the plasma half-life is listed as 1.8 h.
